Assay results as given in patent publication US8304447B2, “2-acylaminopropoanol-type glucosylceramide synthase inhibitors” (Genzyme Corporation, priority 2007, dated 2012).

test system: GM3; assay: GM3 Elisa assay; assay type: cell-based; conditions: 48 h, Table 2; B16-FO cells, 2 days incubation; read-out: IC50_uM_Mean
How it was run: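 Murine B16-FO melanoma cells attached 6 h on collagen, then exposed to compounds for 2 days at 37 °C. After formaldehyde fixation, cell-surface GM3 (NeuAc) was detected by anti-GM3 IgM and peroxidase anti-mouse IgM with Quantablu fluorescence (Ex 325/Em 420).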

| IC50 [nM] | Compound |
| --- | --- |
| 1000 to 3000 | CCCCCCCC(=O)N[C@H](CN1CCCC1)[C@H](O)c1ccc(OC)c(OC)c1 [Compound 321] |
| 100 to 1000 | CCCCCCCC(=O)N[C@H](CN1CCC(F)C1)[C@H](O)c1ccc2c(c1)OCCO2 (stereo partly shown) [Compound 322] |

same assay, conditions: Table 3 (IC 50 Values); B16-FO cells; read-out: IC50_uM_Mean

| Compound | IC50 [nM] |
| --- | --- |
| Cc1ccc([C@@H](O)[C@@H](CN2CCCC2)NC(=O)Cc2ccc(OC(F)(F)F)cc2)cc1F [Compound 347] | 100 to 1000 |
| CCCCCCCC(=O)N[C@H](CN1CCCC1)[C@H](O)c1ccc(C)c(F)c1 [Compound 348] | 100 to 1000 |
| COc1ccc(OCCC(=O)N[C@H](CN2CCCC2)[C@H](O)c2ccc(C)c(F)c2)cc1 [Compound 349] | 100 to 1000 |
| COc1ccc(C(=O)CCCCC(=O)N[C@H](CN2CCCC2)[C@H](O)c2ccc(C)c(F)c2)cc1 [Compound 351] | 100 to 1000 |
| COc1ccc([C@@H](O)[C@@H](CO)NC(=O)OCc2ccccc2)c(OC)c1 [Compound 352] | 3000 to 10000 |
| COc1ccc(C(=O)CCCCC(=O)N[C@H](CN2CCCC2)[C@H](O)c2ccc(OC)cc2OC)cc1 [Compound 353] | 100 to 1000 |
| COCCc1ccc([C@@H](O)[C@@H](CN2CCCC2)NC(=O)Cc2ccc(OC(F)(F)F)cc2)cc1 [Compound 354] | 100 to 1000 |
| COCCc1ccc([C@@H](O)[C@@H](CN2CCCC2)NC(=O)CCCC(=O)c2ccc(OC)cc2)cc1 [Compound 355] | 1000 to 3000 |
| COCCc1ccc([C@@H](O)[C@@H](CN2CCCC2)NC(=O)CCOc2ccc(OC)cc2)cc1 [Compound 356] | 1000 to 3000 |
| COCCc1ccc([C@@H](O)[C@@H](CN2CCCC2)NC(=O)CCCCC(=O)c2ccc(OC)cc2)cc1 [Compound 357] | 100 to 1000 |
| COc1ccc(C(=O)CCCC(=O)N[C@H](CN2CCCC2)[C@H](O)c2ccc(Cl)s2)cc1 [Compound 359] | 100 to 1000 |
| CCCCCCCC(=O)N[C@H](CN1CCCC1)[C@H](O)c1sccc1C [Compound 360] | 100 to 1000 |
| COc1ccc(C(=O)CCCC(=O)N[C@H](CN2CCCC2)[C@H](O)c2sccc2C)cc1 [Compound 361] | 3000 to 10000 |
| COc1ccc(C(=O)CCCCC(=O)N[C@H](CN2CCCC2)[C@H](O)c2sccc2C)cc1 [Compound 362] | 3000 to 10000 |
| COc1ccc(OCCC(=O)N[C@H](CN2CCCC2)[C@H](O)c2sccc2C)cc1 [Compound 363] | 100 to 1000 |
| CCCCCCOc1ccc([C@@H](O)[C@@H](CN2C3CCC2CC3)NC(=O)CCCCC(=O)c2ccc(OC)cc2)cc1 [Compound 370] | ≤ 100 |
| CCCCCCOc1ccc([C@@H](O)[C@@H](CN2C3CCC2CC3)NC(=O)CCCCCC(=O)c2ccc(OC)cc2)cc1 [Compound 374] | ≤ 100 |
| COc1ccc(C(=O)CCCCC(=O)N[C@H](CN2CC[C@H](O)C2)[C@H](O)c2ccc(OC(C)C)cc2)cc1 [Compound 375] | 100 to 1000 |
| COc1ccc(C(=O)CCCCC(=O)N[C@H](CN2C3CCC2CC3)[C@H](O)c2ccc(OC(C)C)cc2)cc1 [Compound 376] | ≤ 100 |
| COc1ccc(C(=O)CCCCCC(=O)N[C@H](CN2C3CCC2CC3)[C@H](O)c2ccc(OC(C)C)cc2)cc1 [Compound 377] | ≤ 100 |
| O=C(N[C@H](CN1CCCC1)[C@H](O)c1ccc(Cl)cc1)OCc1ccccc1 [Compound 379] | 100 to 1000 |
| O=C(Cc1ccc(OC(F)(F)F)cc1)N[C@H](CN1CCCC1)[C@H](O)c1ccc(Cl)cc1 [Compound 381] | 1000 to 3000 |
| COc1ccc(OCCC(=O)N[C@H](CN2CCCC2)[C@H](O)c2ccc(Cl)cc2)cc1 [Compound 382] | 100 to 1000 |

| Compound | IC50 [nM] |
| --- | --- |
| COc1ccc(C(=O)CCCC(=O)N[C@H](CN2CCCC2)[C@H](O)c2ccc(Cl)cc2)cc1 [Compound 383] | 100 to 1000 |
| COc1ccc(C(=O)CCCCC(=O)N[C@H](CN2CCCC2)[C@H](O)c2ccc(Cl)cc2)cc1 [Compound 384] | 100 to 1000 |
| CCCCCCCC(=O)N[C@H](CN1CCCC1)[C@H](O)c1ccc(Cl)cc1 [Compound 385] | 1000 to 3000 |
| COc1ccc(C(=O)CCCC(=O)N[C@H](CN2CCCC2)[C@H](O)c2ccc(OC)c(C)c2)cc1 [Compound 386] | 100 to 1000 |
| COc1ccc(C(=O)CCCCC(=O)N[C@H](CN2CCCC2)[C@H](O)c2ccc(OC)c(C)c2)cc1 [Compound 387] | 100 to 1000 |
| COc1ccc(OCCC(=O)N[C@H](CN2CCCC2)[C@H](O)c2ccc(OC)c(C)c2)cc1 [Compound 391] | 100 to 1000 |
| O=C(Cc1ccc(OC(F)(F)F)cc1)N[C@H](CN1CCCC1)[C@H](O)/C=C/c1ccccc1 [Compound 392] | 3000 to 10000 |
| COc1ccc(C(=O)CCCC(=O)N[C@H](CN2CCCC2)[C@H](O)/C=C/c2ccccc2)cc1 [Compound 393] | 3000 to 10000 |
| COc1ccc(C(=O)CCCCCC(=O)N[C@H](CN2CCCC2)[C@H](O)/C=C/c2ccccc2)cc1 [Compound 394] | 1000 to 3000 |
| COc1ccc(C(=O)CCCCC(=O)N[C@H](CN2CCCC2)[C@H](O)/C=C/c2ccccc2)cc1 [Compound 395] | 3000 to 10000 |
| COc1ccc(OCCC(=O)N[C@H](CN2CCCC2)[C@H](O)/C=C/c2ccccc2)cc1 [Compound 396] | 3000 to 10000 |
| CCCCCCCC(=O)N[C@H](CN1CCCC1)[C@H](O)/C=C/c1ccccc1 [Compound 397] | 3000 to 10000 |
| O=C(Cc1ccc(OC(F)(F)F)cc1)N[C@H](CN1CCCC1)[C@H](O)c1ccc2c(c1)OC(F)(F)C(F)(F)O2 [Compound 398] | 3000 to 10000 |
| O=C(N[C@H](CN1CCCC1)[C@H](O)c1ccc2c(c1)OC(F)(F)C(F)(F)O2)OCc1ccccc1 [Compound 399] | 1000 to 3000 |
| CCCCCCCC(=O)N[C@H](CN1CCCC1)[C@H](O)c1ccc2c(c1)OC(F)(F)C(F)(F)O2 [Compound 400] | 3000 to 10000 |
| COc1ccc(C(=O)CCCCCC(=O)N[C@H](CN2CCCC2)[C@H](O)c2ccc3c(c2)OC(F)(F)C(F)(F)O3)cc1 [Compound 401] | 100 to 1000 |
| COc1ccc(OCCC(=O)N[C@H](CN2CCCC2)[C@H](O)c2ccc3c(c2)OC(F)(F)C(F)(F)O3)cc1 [Compound 402] | 3000 to 10000 |
| COc1ccc(C(=O)CCCCC(=O)N[C@H](CN2CCCC2)[C@H](O)c2ccc3c(c2)OC(F)(F)C(F)(F)O3)cc1 [Compound 403] | 1000 to 3000 |
| O=C(N[C@H](CN1CCCC1)[C@H](O)c1ccc2c(c1)OC(F)(F)O2)OCc1ccccc1 [Compound 404] | 3000 to 10000 |
| COc1ccc(C(=O)CCCC(=O)N[C@H](CN2CCCC2)[C@H](O)c2ccc3c(c2)OC(F)(F)O3)cc1 [Compound 405] | 1000 to 3000 |
| O=C(N[C@H](CO)[C@H](O)c1ccc2c(c1)OC(F)(F)O2)OCc1ccccc1 [Compound 406] | 3000 to 10000 |
| COc1ccc(OCCC(=O)N[C@H](CN2CCCC2)[C@H](O)c2ccc3c(c2)OC(F)(F)O3)cc1 [Compound 407] | 1000 to 3000 |

Next, values leading:

| IC50 [nM] | Compound |
| --- | --- |
| 100 to 1000 | CCCCCCCC(=O)N[C@H](CN1CCCC1)[C@H](O)c1ccc(OC)c(F)c1 [Compound 340] |
| ≤ 100 | COc1ccc(OCCC(=O)N[C@H](CN2CCCC2)[C@H](O)c2ccc(OC)c(F)c2)cc1 [Compound 341] |
| 100 to 1000 | COc1ccc([C@@H](O)[C@@H](CN2CCCC2)NC(=O)Cc2ccc(OC(F)(F)F)cc2)cc1F [Compound 342] |
| 100 to 1000 | COc1ccc(C(=O)CCCC(=O)N[C@H](CN2CCCC2)[C@H](O)c2ccc(OC)c(F)c2)cc1 [Compound 343] |
| ≤ 100 | COc1ccc(C(=O)CCCCC(=O)N[C@H](CN2CCCC2)[C@H](O)c2ccc(OC)c(F)c2)cc1 [Compound 344] |
| ≤ 100 | COc1ccc(C(=O)CCCCCC(=O)N[C@H](CN2CCCC2)[C@H](O)c2ccc(OC)c(F)c2)cc1 [Compound 345] |
| 100 to 1000 | COc1ccc(C(=O)CCCC(=O)N[C@H](CN2CCCC2)[C@H](O)c2ccc(C)c(F)c2)cc1 [Compound 346] |
| ≤ 100 | COc1ccc(C(=O)CCCCCC(=O)N[C@H](CN2CCCC2)[C@H](O)c2ccc(C)c(F)c2)cc1 [Compound 350] |
| ≤ 100 | COc1ccc(C(=O)CCCCCC(=O)N[C@H](CN2CCCC2)[C@H](O)c2ccc(Cl)s2)cc1 [Compound 358] |
| ≤ 100 | COc1ccc(C(=O)CCCCC(=O)N[C@H](CN2CCCC2)[C@H](O)c2ccc(OCCOc3ccc(C#N)cc3)cc2)cc1 [Compound 364] |
| ≤ 100 | COc1ccc(C(=O)CCCCC(=O)N[C@H](CN2CCCC2)[C@H](O)c2ccc(OCCOc3cccc(C(F)(F)F)c3)cc2)cc1 [Compound 365] |
| ≤ 100 | COc1ccc(C(=O)CCCCC(=O)N[C@H](CN2CCCC2)[C@H](O)c2ccc(OCCOc3ccccc3F)cc2)cc1 [Compound 366] |
| ≤ 100 | COc1ccc(C(=O)CCCCC(=O)N[C@H](CN2CCCC2)[C@H](O)c2ccc(OCCCOc3ccccc3F)cc2)cc1 [Compound 367] |
| ≤ 100 | CCCCCCOc1ccc([C@@H](O)[C@@H](CN2CC[C@H](O)C2)NC(=O)CCCCC(=O)c2ccc(OC)cc2)cc1 [Compound 368] |
| ≤ 100 | CCCCCCOc1ccc([C@@H](O)[C@@H](CN2CC[C@@H](F)C2)NC(=O)CCCCC(=O)c2ccc(OC)cc2)cc1 [Compound 369] |
| ≤ 100 | CCCCCCOc1ccc([C@@H](O)[C@@H](CN2CC[C@@H](F)C2)NC(=O)CCCCCC(=O)c2ccc(OC)cc2)cc1 [Compound 371] |
| ≤ 100 | CCCCCCOc1ccc([C@@H](O)[C@@H](CN2CC[C@H](O)C2)NC(=O)CCCCCC(=O)c2ccc(OC)cc2)cc1 [Compound 372] |
| ≤ 100 | COc1ccc(C(=O)CCCCC(=O)N[C@H](CN2CCCC2)[C@H](O)c2ccc(OCCOc3c(C)cccc3C)cc2)cc1 [Compound 373] |
| ≤ 100 | COc1ccc(C(=O)CCC(=O)CCC(=O)N[C@H](CN2CCCC2)[C@H](O)c2ccc3c(c2)OCCO3)cc1 [Compound 378] |
| ≤ 100 | COc1ccc(C(=O)CCCCCC(=O)N[C@H](CN2CCCC2)[C@H](O)c2ccc(Cl)cc2)cc1 [Compound 380] |
| ≤ 100 | CCCCCCCC(=O)N[C@H](CN1CCCC1)[C@H](O)c1ccc(OC)c(C)c1 [Compound 388] |
| ≤ 100 | COc1ccc([C@@H](O)[C@@H](CN2CCCC2)NC(=O)Cc2ccc(OC(F)(F)F)cc2)cc1C [Compound 389] |
| ≤ 100 | COc1ccc(C(=O)CCCCCC(=O)N[C@H](CN2CCCC2)[C@H](O)c2ccc(OC)c(C)c2)cc1 [Compound 390] |
